# Experimental data published in patent publication US5824698A, “Antibacterial dibenzimidazole derivatives” (priority 1994, dated 1998).
# Read-outs that look alike come from different tables or passages of the source.
# Tests used:
# Format in all cases: cell-based
# B. subtilis ATCC 585369 = experiment: Antibacterial activity in vitro (MIC, standard agar method); settings: Bacillus subtilis, ATCC585369, DST agar, 35° C., 20 hours, read-out: Minimum inhibitory concentration (MIC)
# Method: (§1) The minimum inhibitory concentration (MIC) of the substances investigated against gram-positive and gram-negative strains was determined using standard agar methods. The compounds were dissolved in a small amount of dimethyl sulphoxide, diluted with water and incorporated into liquified DST agar at 50° C. The thus-produced agar plates were used immediately thereafter in the test. The test concentrations lay between 128 and 0.06 μg/ml. The bacterial inoculation solutions were prepared from pre-cultures grown overnight, diluted and applied to the agar surface using an inoculation device (Denley A400). The plates were incubated at 35° C. for 20 hours. The MIC was determined as the lowest concentration of substance which prevented a visible growth. A scarcely visible turbidity and the growth of less than 5 colonies were ignored. The determinations of the antibacterial activities (Tab. 1) were carried out not only for the free bases, but also for the hydrochloride salt of each compound. The same values were obtained within experimental error.
# E. cloacae P 99 = experiment: as above; settings: Enterobacter cloacae, P99, 20 h, read-out: Minimum inhibitory concentration (MIC)
# Method: as §1
# E. coli 1346 = experiment: as above; settings: Escherichia coli, DST agar, 35° C., 20 hours, read-out: Minimum inhibitory concentration (MIC)
# Method: as §1
# E. coli 1527 E = experiment: as above; settings: Escherichia coli, read-out: Minimum inhibitory concentration (MIC)
# Method: as §1
# E. coli 25922 = experiment: as above; settings: read-out: Minimum inhibitory concentration (MIC)
# Method: as §1
# E. coli AS-19 = experiment: as above; settings: Escherichia coli, AS19, DST agar, 35° C., 20 hours, read-out: Minimum inhibitory concentration (MIC)
# Method: as §1
# E. coli B = experiment: as above; settings: Escherichia coli, DST agar, 35° C., 20 hours, read-out: Minimum inhibitory concentration (MIC)
# Method: as §1
# E. coli DC2 = experiment: as above; settings: Escherichia coli, read-out: Minimum inhibitory concentration (MIC)
# Method: as §1
# E. coli H560 = experiment: as above; settings: Escherichia coli, H560, 20 h, read-out: Minimum inhibitory concentration (MIC)
# Method: as §1
# [1] = test system: E. coli K12 KEA-12 (GyrA); experiment: as above; settings: Escherichia coli, 20 h, read-out: Minimum inhibitory concentration (MIC)
# Method: as §1
# E. faecalis 6 = experiment: as above; settings: read-out: Minimum inhibitory concentration (MIC)
# Method: as §1
# K. oxytoca 1082E = experiment: as above; settings: Klebsiella oxytoca, DST agar, 35° C., 20 hours, read-out: Minimum inhibitory concentration (MIC)
# Method: as §1
# P. aeroginosa BA = experiment: as above; settings: DST agar, 35° C., 20 hours, read-out: Minimum inhibitory concentration (MIC)
# Method: as §1
# P. aeroguinosa 3351 = experiment: as above; settings: read-out: Minimum inhibitory concentration (MIC)
# Method: as §1
# P. aeruginosa 799/61 = experiment: as above; settings: Pseudomonas aeruginosa, 799/61, 20 h, read-out: Minimum inhibitory concentration (MIC)
# Method: as §1
# S. marcescens = experiment: as above; settings: Serratia marcescens, 20 h, read-out: Minimum inhibitory concentration (MIC)
# Method: as §1
# Staph. aureus 25923 = experiment: as above; settings: Staphylococcus aureus, DST agar, 35° C., 20 hours, read-out: Minimum inhibitory concentration (MIC)
# Method: as §1
# Staph. aureus 887 = experiment: as above; settings: Staphylococcus aureus, DST agar, 35° C., 20 hours, read-out: Minimum inhibitory concentration (MIC)
# Method: as §1
# Staph. haemolyticus 75 = experiment: as above; settings: Staphylococcus haemolyticus, DST agar, 35° C., 20 hours, read-out: Minimum inhibitory concentration (MIC)
# Method: as §1
# S. aureus 101 = experiment: as above; settings: Staphylococcus aureus, DST agar, 35° C., 20 hours, read-out: Minimum inhibitory concentration (MIC)
# Method: as §1
# E. coli 159 R = experiment: as above; settings: Escherichia coli, 159R, 20 h, read-out: Minimum inhibitory concentration (MIC)
# Method: as §1
# S. aureus 853 = experiment: as above; settings: Staphylococcus aureus, DST agar, 35° C., 20 hours, read-out: Minimum inhibitory concentration (MIC)
# Method: as §1
# [2] = test system: Helicobacter pylori K 1585; experiment: Antibacterial activity against Helicobacter pylori in vitro (MIC, agar method); settings: K1585, H. pylori K 1585, Muller-Hinton agar, 5% sheep blood, incubation 4 days, read-out: Minimum inhibitory concentration (MIC)
# Method: as §1
# (§2) The antibacterial activities against Helicobacter pylori were carried out analogously to the method described above with the following variations: The compounds were incorporated into Muller-Hinton agar containing 5% sheep blood additive. The test concentrations lay between 10 and 0.1 μg/ml. […]
# [3] = test system: Helicobacter pylori PH 81; experiment: as above; settings: PH81, H. pylori PH 81, Muller-Hinton agar, 5% sheep blood, incubation 7 days, read-out: Minimum inhibitory concentration (MIC)
# Method: as §1, §2
# [4] = E. coli DC2, DST agar, 35° C., 20 hours
# [5] = Enterococcus faecalis, E. faecalis 6, DST agar, 35° C., 20 hours
# [6] = Escherichia coli, E. coli 25922, DST agar, 35° C., 20 hours
Structure (SMILES),MIC (B. subtilis ATCC 585369),MIC (E. cloacae P 99),MIC (E. coli 1346),"MIC (E. coli 25922; Escherichia coli, 25922, 20 h)",MIC (E. coli AS-19),MIC (E. coli B),MIC (E. coli DC2; [4]),MIC (E. coli H560),MIC [1],MIC (K. oxytoca 1082E),MIC (P. aeroginosa BA),MIC (P. aeroguinosa 3351; 20 h),MIC (P. aeruginosa 799/61),MIC (S. marcescens),MIC (Staph. aureus 25923),MIC (Staph. aureus 887),MIC (Staph. haemolyticus 75),"MIC (E. coli 1527 E; 1527E, 20 h)",MIC (E. faecalis 6; [5]),MIC (S. aureus 101),further results
"COc1ccc(-c2nc3ccc(-c4ccc5nc(-c6ccc(OC)cc6)[nH]c5c4)cc3[nH]2)cc1 [Example 8, 2,2'-Bis-(4-methoxy-phenyl)-6,6'-dibenzimidazole]",0.5 mg/L,> 128 mg/L,8 mg/L,> 128 mg/L,32 mg/L,8 mg/L,64 mg/L,> 128 mg/L,> 128 mg/L,> 128 mg/L,> 128 mg/L,> 128 mg/L,> 128 mg/L,> 128 mg/L,1 mg/L,0.5 mg/L,≤ 0.25 mg/L,,,,"MIC (E. coli 1527 E; E. coli 1527 E, DST agar, 35° C., 20 hours): > 12 mg/L; MIC (E. faecalis 6; Enterococcus faecalis, 6, 20 h): > 128 mg/L"
"COc1ccc(-c2nc3ccc(-c4ccc5nc(-c6ccc(OC)c(O)c6)[nH]c5c4)cc3[nH]2)cc1O [Example 4, 5-[2'-(3-Hydroxy-4-methoxy-phenyl)-6,6'-dibenzimidazol-2-yl]-2-methoxy-phenol]",≤ 0.25 mg/L,> 128 mg/L,≤ 0.25 mg/L,> 128 mg/L,1 mg/L,≤ 0.25 mg/L,2 mg/L,> 128 mg/L,> 128 mg/L,> 128 mg/L,> 128 mg/L,> 128 mg/L,> 128 mg/L,> 128 mg/L,0.5 mg/L,0.5 mg/L,≤ 0.25 mg/L,> 128 mg/L,32 mg/L,≤ 0.25 mg/L,
"CCOc1ccc(-c2nc3ccc(-c4ccc5nc(-c6ccc(OCC)cc6)[nH]c5c4)cc3[nH]2)cc1 [Example 9, 2,2'-Bis-(4-ethoxy-phenyl)-6,6'-dibenzimidazole]",≤ 0.5 mg/L,> 128 mg/L,16 mg/L,> 128 mg/L,> 128 mg/L,> 128 mg/L,,> 128 mg/L,> 128 mg/L,> 128 mg/L,> 128 mg/L,> 128 mg/L,> 128 mg/L,> 128 mg/L,2 mg/L,≤ 0.5 mg/L,1 mg/L,> 128 mg/L,64 mg/L,,"MIC (E. coli 159 R): > 128 mg/L; MIC (E. coli DC2; DC2, 20 h): > 128 mg/L"
"COc1cc(-c2nc3ccc(-c4ccc5nc(-c6ccc(O)c(OC)c6)[nH]c5c4)cc3[nH]2)ccc1O [Example 3, 4-[2'-(4-Hydroxy-3-methoxy-phenyl)-6,6'-dibenzimidazol-2-yl]-2-methoxy-phenyl]",32 mg/L,> 128 mg/L,64 mg/L,> 128 mg/L,> 128 mg/L,16 mg/L,8 mg/L,> 128 mg/L,> 128 mg/L,> 128 mg/L,> 128 mg/L,> 128 mg/L,> 128 mg/L,> 128 mg/L,4 mg/L,8 mg/L,4 mg/L,> 128 mg/L,4 mg/L,,
"Nc1ccc(-c2nc3ccc(-c4ccc5nc(-c6ccc(N)cc6)[nH]c5c4)cc3[nH]2)cc1 [Example 7, 4-[2'-(4-Amino-phenyl)-6,6'-dibenzimidazol-2-yl]-phenylamine]",2 mg/L,> 128 mg/L,≤ 0.12 mg/L,,4 mg/L,0.25 mg/L,≤ 0.12 mg/L,> 128 mg/L,> 128 mg/L,> 128 mg/L,> 128 mg/L,> 128 mg/L,> 128 mg/L,> 128 mg/L,1 mg/L,2 mg/L,> 0.12 mg/L,> 128 mg/L,≤ 0.12 mg/L,,MIC (E. coli 25922; [6]): > 128 mg/L
"c1coc(-c2nc3ccc(-c4ccc5nc(-c6ccco6)[nH]c5c4)cc3[nH]2)c1 [Example 10, 2,2'-Difuran-2-yl-6,6'-dibenzimidazole]",,> 128 mg/L,8 mg/L,,0.5 mg/L,,1 mg/L,> 128 mg/L,> 128 mg/L,> 128 mg/L,> 128 mg/L,,> 128 mg/L,> 128 mg/L,4 mg/L,2 mg/L,0.25 mg/L,> 128 mg/L,,,"MIC (E. coli 25922; [6]): > 128 mg/L; MIC (E. faecalis 6; Enterococcus faecalis, 6, 20 h): > 128 mg/L; MIC (P. aeroguinosa 3351; P. aeroguinosa 3351, DST agar, 35° C., 20 hours): > 129 mg/L"
"N#Cc1ccc(-c2nc3ccc(-c4ccc5nc(-c6ccc(O)cc6)[nH]c5c4)cc3[nH]2)cc1 [Example 12, 4-[2'-(4-Hydroxy-phenyl)-6,6'-dibenzimidazol-2-yl]-benzonitrile]",2 mg/L,> 128 mg/L,1 mg/L,,32 mg/L,2 mg/L,8 mg/L,> 128 mg/L,> 128 mg/L,> 128 mg/L,> 128 mg/L,> 128 mg/L,> 128 mg/L,,1 mg/L,2 mg/L,0.25 mg/L,,4 mg/L,4 mg/L,MIC (E. coli 159 R): > 128 mg/L; MIC (E. coli 25922; [6]): > 128 mg/L; MIC (S. aureus 853): 2 mg/L
Cc1cc(-c2nc3ccc(-c4ccc5nc(-c6ccc(O)c(C)c6)[nH]c5c4)cc3[nH]2)ccc1O [Example 2],,> 128 mg/L,2 mg/L,128 mg/L,4 mg/L,0.5 mg/L,4 mg/L,> 128 mg/L,> 128 mg/L,> 128 mg/L,> 128 mg/L,> 128 mg/L,> 128 mg/L,,≤ 0.25 mg/L,≤ 0.25 mg/L,≤ 0.25 mg/L,,≤ 0.25 mg/L,0.5 mg/L,MIC [2]: 1 mg/L; MIC [3]: < 0.1 mg/L; MIC (E. coli 159 R): > 128 mg/L; MIC (S. aureus 853): ≤ 0.25 mg/L
"Oc1cccc(-c2nc3ccc(-c4ccc5nc(-c6cccc(O)c6)[nH]c5c4)cc3[nH]2)c1 [Example 6, 3-[2'-(3-Hydroxy-phenyl)-6,6'-dibenzimidazol-2-yl]-phenol]",2 mg/L,> 128 mg/L,2 mg/L,,1 mg/L,0.5 mg/L,1 mg/L,> 128 mg/L,> 128 mg/L,> 128 mg/L,> 128 mg/L,> 128 mg/L,> 128 mg/L,> 128 mg/L,2 mg/L,2 mg/L,1 mg/L,> 128 mg/L,2 mg/L,0.12 mg/L,MIC (E. coli 25922; [6]): > 128 mg/L
